Laboratory results published in ChEMBL document CHEMBL4024707, “Using gene expression database to uncover biology functions of 1,4-disubstituted 1,2,3-triazole analogues synthesized via a copper (I)-catalyzed reaction” (Eur J Med Chem, 2017).
Activity calls are given as the source filed them. No cut-off for these calls is given here.

Key:
Hep 3B2 [1] = test: Cell cycle arrest in human Hep3B cells assessed as accumulation at G0/G1 phase at 2.5 uM after 48 hrs by propidium iodide staining based flow cytometry (reference value: 39.7 to 40.4%); type: functional
Hep 3B2 [2] = test: Induction of autophagy in human Hep3B cells at 40 uM after 48 hrs by acridine orange staining based flow cytometry (reference value: 0.9 to 3%); type: functional
Hep 3B2 [3] = test: Cell cycle arrest in human Hep3B cells assessed as accumulation at G0/G1 phase at 10 uM after 48 hrs by propidium iodide staining based flow cytometry (reference value: 39.7 to 40.4%); type: functional
Hep 3B2 [4] = test: Cell cycle arrest in human Hep3B cells assessed as accumulation at G2/M phase at 40 uM after 24 hrs by propidium iodide staining based flow cytometry (reference value: 31.8 to […]%); type: functional
Hep 3B2 [5] = test: Growth inhibition of human Hep3B cells at 10 uM up to 72 hrs by MTT assay; type: functional, cell-based
Hep 3B2 [6] = test: Cell cycle arrest in human Hep3B cells assessed as accumulation at G0/G1 phase at 10 uM after 72 hrs by propidium iodide staining based flow cytometry (reference value: 41.6 to 46.2%); type: functional
Hep 3B2 [7] = test: Cell cycle arrest in human Hep3B cells assessed as accumulation at sub-G1 phase at 40 uM after 72 hrs by propidium iodide staining based flow cytometry (reference value: 0.6 to 3.3%); type: functional
Hep 3B2 [8] = test: Cell cycle arrest in human Hep3B cells assessed as accumulation at G2/M phase at 40 uM after 48 hrs by propidium iodide staining based flow cytometry (reference value: 34.8 to […]%); type: functional
Hep 3B2 [9] = test: Cell cycle arrest in human Hep3B cells assessed as accumulation at S phase at 40 uM after 72 hrs by propidium iodide staining based flow cytometry (reference value: 16.4 to 21.1%); type: functional
Hep 3B2 [10] = test: Cell cycle arrest in human Hep3B cells assessed as accumulation at S phase at 2.5 uM after 48 hrs by propidium iodide staining based flow cytometry (reference value: 20.8 to 24%); type: functional
Hep 3B2 [11] = test: Induction of autophagy in human Hep3B cells at 40 uM after 72 hrs by acridine orange staining based flow cytometry (reference value: 1.1 to 4%); type: functional
Hep 3B2 [12] = test: Cell cycle arrest in human Hep3B cells assessed as accumulation at G0/G1 phase at 2.5 uM after 24 hrs by propidium iodide staining based flow cytometry (reference value: 36.3 to 39.0%); type: functional
Hep 3B2 [13] = test: Up regulation of RPS6KA1 expression in human Hep3B cells at 1 uM after 6 to 24 hrs by L1000 expression profiling method relative to control; type: functional
Hep 3B2 [14] = test: Down regulation of FUT1 expression in human Hep3B cells at 1 uM after 6 to 24 hrs by L1000 expression profiling method relative to control; type: functional
Hep 3B2 [15] = test: Cell cycle arrest in human Hep3B cells assessed as accumulation at G0/G1 phase at 10 uM after 48 hrs in absence of curcumin by propidium iodide staining based flow cytometry (reference value: […] +/- […]%); type: functional
Hep 3B2 [16] = test: Cell cycle arrest in human Hep3B cells assessed as accumulation at S phase at 10 uM after 48 hrs in presence of curcumin by propidium iodide staining based flow cytometry (reference value: 23.8 +/- 1.9%); type: functional
Hep 3B2 [17] = test: Down regulation of GRB7 expression in human Hep3B cells at 1 uM after 6 to 24 hrs by L1000 expression profiling method relative to control; type: functional
Hep 3B2 [18] = test: Down regulation of PLA2G4A expression in human Hep3B cells at 1 uM after 6 to 24 hrs by L1000 expression profiling method relative to control; type: functional
Hep 3B2 [19] = test: Down regulation of PLEKHM1 expression in human Hep3B cells at 1 uM after 6 to 24 hrs by L1000 expression profiling method relative to control; type: functional
Hep 3B2 [20] = test: Growth inhibition of human Hep3B cells at 5 uM after 48 hrs in presence of curcumin by MTT assay; type: functional
Hep 3B2 [21] = test: Cell cycle arrest in human Hep3B cells assessed as accumulation at S phase at 10 uM after 48 hrs in absence of curcumin by propidium iodide staining based flow cytometry (reference value: 23.8 +/- 1.9%); type: functional
Hep 3B2 [22] = test: Down regulation of ARL4C expression in human Hep3B cells at 1 uM after 6 to 24 hrs by L1000 expression profiling method relative to control; type: functional
Hep 3B2 [23] = test: Cell cycle arrest in human Hep3B cells assessed as accumulation at G2/M phase at 10 uM after 48 hrs in presence of curcumin by propidium iodide staining based flow cytometry (reference value: 36.6 +/- 2.9%); type: functional
Hep 3B2 [24] = test: Down regulation of EDN1 expression in human Hep3B cells at 1 uM after 6 to 24 hrs by L1000 expression profiling method relative to control; type: functional
Hep 3B2 [25] = test: Cell cycle arrest in human Hep3B cells assessed as accumulation at G2/M phase at 10 uM after 48 hrs in absence of curcumin by propidium iodide staining based flow cytometry (reference value: 36.6 +/- 2.9%); type: functional
Hep 3B2 [26] = test: Down regulation of HIST2H2BE expression in human Hep3B cells at 1 uM after 6 to 24 hrs by L1000 expression profiling method relative to control; type: functional
Hep 3B2 [27] = test: Down regulation of TFAP2A expression in human Hep3B cells at 1 uM after 6 to 24 hrs by L1000 expression profiling method relative to control; type: functional
Hep 3B2 [28] = test: Growth inhibition of human Hep3B cells at 20 uM up to 72 hrs by MTT assay; type: functional, cell-based
Hep 3B2 [29] = test: Cell cycle arrest in human Hep3B cells assessed as accumulation at G0/G1 phase at 10 uM after 48 hrs in presence of curcumin by propidium iodide staining based flow cytometry (reference value: […] +/- […]%); type: functional
Hep 3B2 [30] = test: Down regulation of FAM69A expression in human Hep3B cells at 1 uM after 6 to 24 hrs by L1000 expression profiling method relative to control; type: functional
Hep 3B2 [31] = test: Induction of autophagy in human Hep3B cells assessed as ratio of LC3-2 to beta-actin level at 10 uM after 48 hrs in absence of curcumin by Western blot analysis; type: functional
Hep 3B2 [32] = test: Up regulation of […] expression in human Hep3B cells at 1 uM after 6 to 24 hrs by L1000 expression profiling method relative to control; type: functional
Hep 3B2 [33] = test: Cell cycle arrest in human Hep3B cells assessed as accumulation at sub-G1 phase at 10 uM after 48 hrs in presence of curcumin by propidium iodide staining based flow cytometry (reference value: 3.7 +/- 0.4%); type: functional
Hep 3B2 [34] = test: Down regulation of IL1B expression in human Hep3B cells at 1 uM after 6 to 24 hrs by L1000 expression profiling method relative to control; type: functional
Hep 3B2 [35] = test: Down regulation of PTK2B expression in human Hep3B cells at 1 uM after 6 to 24 hrs by L1000 expression profiling method relative to control; type: functional
Hep 3B2 [36] = test: Down regulation of FZD1 expression in human Hep3B cells at 1 uM after 6 to 24 hrs by L1000 expression profiling method relative to control; type: functional

## COc1ccc(CNC(=O)Nc2ncc([N+](=O)[O-])s2)cc1
Hep 3B2 [1]
  Activity: 38.5%
Hep 3B2 [2]
  Activity: 7.7%
Hep 3B2 [3]
  Activity: 39.4%
Hep 3B2 [4]
  Activity: 37.6%
Hep 3B2 [5]
  growth inhibition (GI): Active
Hep 3B2 [6]
  Activity: 43.3%
Hep 3B2 [7]
  Activity: 5.4%
Hep 3B2 [8]
  Activity: 41.6%
Hep 3B2 [9]
  Activity: 13.5%
Hep 3B2 [10]
  Activity: 23.2%
Hep 3B2 [11]
  Activity: 23.3%
Hep 3B2 [12]
  Activity: 36.8%

## O=C1COc2ccccc2N1Cc1cn(CCC2OCCO2)nn1
Hep 3B2 [13]
  log2FC: 3.2908
Hep 3B2 [14]
  log2FC: -3.2524
Hep 3B2 [15]
  Activity: 11.6%
Hep 3B2 [16]
  Activity: 8.8%
Hep 3B2 [17]
  log2FC: -4.419
Hep 3B2 [18]
  log2FC: -3.7476
Hep 3B2 [19]
  log2FC: -3.9025
Hep 3B2 [20]
  CI: 0.92
Hep 3B2 [21]
  Activity: 13.9%
Hep 3B2 [22]
  log2FC: -3.744
Hep 3B2 [23]
  Activity: 44.8%
Hep 3B2 [24]
  log2FC: -3.5482
Hep 3B2 [25]
  Activity: 37.1%
Hep 3B2 [26]
  log2FC: -4.2274
Hep 3B2 [27]
  log2FC: -3.78
Hep 3B2 [28]
  growth inhibition (GI): Active
Hep 3B2 [29]
  Activity: 24.8%
Hep 3B2 [30]
  log2FC: -4.3309
Hep 3B2 [31]
  Ratio: 2.2
Hep 3B2 [32]
  log2FC: 3.5557
Hep 3B2 [33]
  Activity: 21.6%
Hep 3B2 [34]
  log2FC: -3.3463
Hep 3B2 [35]
  log2FC: -3.3744
Hep 3B2 [36]
  log2FC: -3.5324
